# Reference: ChEMBL document CHEMBL3507680, “University of Dundee, Gates Library screen for HepG2 cell viability”
# Test: Human HepG2 cell viability assay in 384 well format
# Assay type: toxicity, cell-based
# Design: dose 125 nL, time 70.5 hour; cytotoxicity at 70.5 h: concentration not given beside the values
# Settings: HepG2 cells, read-out: Inhibition
row,SMILES,cytotoxicity at 70.5 h [%]
1,Cc1nonc1C(=O)N1CCCC(c2ncncc2-c2ccncc2)C1 (stereo not given),-28.8
2,CN(C)CCN1C(=O)CCC12CCCN(C(=O)c1cccnc1)CC2 (stereo not given),-5.29
3,CN1[C@@H](C(=O)NCC2CC2)C[C@H]2CN(Cc3ccsc3)C[C@H]21,12.6
4,OC1(CNCCc2nc3c(s2)CCCC3)CNCCOC1 (stereo not given),4.06
5,CC(C)(CO)CCCNC(=O)NC1(C)Cc2ccccc2C1,-0.326
6,CC(C)NC(=O)N1CCN(CC2CC2)CC2(CNC(=O)C2)C1 (stereo not given),-17.7
7,CC(NC(=O)c1cccc(CN2CCN(C)CC2)c1)c1nccs1 (stereo not given),1.61
8,Cn1cc(C(=O)N2CC[C@@H]3[C@@H]2CCN3Cc2ccccc2)cn1,-15
9,CC1(C)CCN(S(=O)(=O)N2CCCC(c3cccc(C(=O)O)c3)C2)CC1 (stereo not given),-10.5
10,NCc1cnn(-c2ccccc2C(=O)NCc2ccncc2)c1,-8.5
11,CC(C)c1nnc2n1CCN(C(=O)CN1Cc3ccccc3C1=O)C2,4.15
12,N#Cc1cccc(NC2CC(=O)N(CCCc3ccccc3)C2)n1 (stereo not given),-19.4
13,CCOC(=O)N1CCC(N2Cc3ncccc3C2=O)CC1,3.24
14,Cc1c(-c2nc(-c3cccc(CN4CCOCC4)c3)no2)cnn1C,-13.7
15,O=C1C(Nc2ncccn2)CCN1c1ccccc1OC(F)F (stereo not given),1.42
16,Cc1ccc(CNC(=O)NC2CCN(CC(F)F)CC2)cc1,-4.96
17,CC(=O)N1CCO[C@@H]2CN(S(=O)(=O)c3ccc(F)cc3)CC[C@@H]2C1,-6.92
18,CCCc1cc(C(=O)NCCC2=CCCCC2)[nH]n1,-9.53
19,O=C(O)C1(Cc2cc(-c3ccc(F)cc3)no2)CCOCC1,8.42
20,CCn1c(CN2CCC(O)(C(=O)OC)CC2)nc2c(F)cccc21,31.2
21,CCN1Cc2nc(OC)c(CNC(=O)CCC3CCCC3)cc2C1=O,-11.1
22,Fc1ccc(OC2CCN(Cc3nnc(-c4ccco4)o3)CC2)cc1,18.9
23,Cn1ccnc1CCNC(=O)NCCC1CCCCO1 (stereo not given),-2.69

row,SMILES,cytotoxicity at 70.5 h [%]
1,O=C(CCc1ccc(Br)cc1)NCc1nnc[nH]1,-9.74
2,Nc1cc(-c2cc(C(=O)O)ccc2Cl)c2cc[nH]c2n1,-8.39
3,CCN(C)c1ncnc2c1CCN(C(=O)N1CCOCC1)CC2,6.06
4,CN(C)CCN1CC2(CCC1=O)CCN(C(=O)c1ccn(C)n1)CC2,-2.52
5,CN(CC(=O)N1CCC(Oc2ccc(C(F)(F)F)cn2)CC1)S(C)(=O)=O,0.51
6,COc1cccc([C@@H]2CCN(Cc3cn(C)c4ccccc34)C[C@H]2O)c1,-10.7
7,N#Cc1ccc(C(=O)O)nc1/C=C/c1cccc(F)c1,-7.55
8,CN1CCC(c2nnc(CN3CCOCC3)n2C)CC1,-24.5
9,CN(C)[C@@H]1CCN(C(=O)c2cccc(C#N)c2)[C@H]1Cc1cnn(C)c1,-8.57
10,CC(Cn1cc(Br)cn1)C(=O)Nc1ccc(C(N)=O)cc1 (stereo not given),7.39
11,O=C(Cn1cc(I)cn1)N1CCOCC1,-3.24
12,CCOCC1c2c(cnn2C)CCN1C(=O)c1ccncn1 (stereo not given),-14.6
13,C=C(C)CNc1nc(CS(=O)(=O)c2ccccc2)cs1,-2.16
14,CCC(NC(=O)c1cc(CC(C)C)nn1C)c1cc(C)ccn1 (stereo not given),-19.2
15,CC(=O)N1CC(c2ccnc(Nc3ccc(C)cn3)n2)C1,-4.62
16,CN(C)CCO[C@H]1C[C@@H](O)C12CCN(c1cnccn1)CC2,-6.05
17,Cc1nnc2n1CCN(CCOc1ccc(C(C)(C)C)cc1)C2,-4.66
18,COc1cc(N2CCC3(CC2)CN(S(C)(=O)=O)c2ccccc23)ncn1,-2.83
19,OC(CN1CCN(CC2CCCCC2)CC1)c1ccccc1 (stereo not given),-8.48
20,N#Cc1cccnc1N1CCN(S(=O)(=O)NCc2ccccc2)CC1,-18.9
21,Cc1cccc(OC2CCN(c3ccc(C#N)cn3)CC2)n1,-1.77
22,Cc1cc(C)n(C2CN(CC(=O)NC3CCS(=O)(=O)C3)C2)n1 (stereo not given),-9.43
23,Cc1cccc2cc(C(=O)N3CCC(F)(F)CC3)n(C)c12,32.7

row,SMILES,cytotoxicity at 70.5 h [%]
1,CN1CCN(c2ccc(NCc3ccc([S+](C)[O-])cc3)cn2)CC1 (stereo not given),-0.416
2,CCN(CC)C(=O)CNC(=O)c1c[nH]c2ccc(OC)cc12,3.81
3,CC(O)CN1CCC(CNCc2cccc(C(N)=O)c2)CC1 (stereo not given),-4
4,O=C(N[C@@H]1CCC[C@@H](N2CCCC2)[C@@H]1O)c1cnn2cccnc12,-1.75
5,Cc1noc(C)c1CCC(=O)NC(C)c1nnc2n1CCC2 (stereo not given),8.52
6,Cc1cccc2nc(CSCC(=O)Nc3nnc(C(C)C)s3)cc(=O)n12,-10.6
7,COc1cccc(N2CCN(C(=O)COc3c(C)occc3=O)CC2)c1,10
8,CN(Cc1ncnn1C)C(=O)CCCn1ccc2cc(Cl)ccc21,-1.32
9,Cn1cc(CN2CC[C@H]3[C@H]2CC(=O)N3Cc2ccncc2)cn1,-15.4
10,COc1cccc(CN2CCCC2c2cccc(F)c2)c1OC (stereo not given),-11.8
11,O=C(c1cccc(O)c1)N1CCC2(CCN2c2ncccn2)C1 (stereo not given),2.82
12,Cc1ccc(OCCN(C)Cc2nccn2C)c(C)c1,-9.5
13,Cc1cc(N2CCC(N(C)C(=O)c3ccc(C#N)cc3)CC2)nc(C)n1,-7.65
14,CC(C)n1nccc1NC(=O)NCCc1nc2ccc(F)cc2n1C,-11
15,Cc1ccc(S(=O)(=O)N2CCOCC2C(N)=O)c(F)c1 (stereo not given),-8.93
16,CCN(CC)c1ccc2ccc(C(=O)N(C)C)cn12,8.29
17,COCC1c2c(cnn2CC2CC2)CCN1Cc1ccc(OC)cc1 (stereo not given),49.3
18,Cc1nc(N2CCOCC2)nc(C)c1NC(=O)c1ccco1,3.55
19,CC(=O)NCC1CN(c2ccc3c(Cl)ccnc3c2F)CCO1 (stereo not given),-7.29
20,CNC(=O)C(C)CN(C)C(=O)Nc1cc(-n2cccc2)ccc1F (stereo not given),-3.24
21,Cc1n[nH]c(C)c1CCC(=O)NC1CCCN(c2ccccc2F)C1 (stereo not given),6.82
22,COc1ccccc1CC(=O)N1CCCC(n2nc(C)nc2C)C1 (stereo not given),-13
23,O=C1CCOC[C@]2(CN(Cc3ccccc3)C[C@H]2c2ccccc2F)N1,1.5

row,SMILES,cytotoxicity at 70.5 h [%]
1,Cc1ccc(N2CCc3sc(C(=O)N4CCOCC4)cc32)nn1,2.34
2,CC(C)(C(=O)N1CCC(C(N)=O)C1)c1ccccc1F (stereo not given),-2.99
3,Cc1ccccc1CN(Cc1ccccn1)C(=O)CNS(C)(=O)=O,25.2
4,COC(=O)CN1CCN(c2cccc(C)c2)CC1,-2.66
5,CC(Cn1cccn1)NC(=O)N1CCN(Cc2cccs2)CC1 (stereo not given),17
6,CN1CCN(C(=O)CC2CCN(CCc3ccccn3)CC2)CC1,-0.784
7,Cc1nc(CN2C(=O)CCC23CCN(c2ncccn2)CC3)cs1,-8.07
8,CCc1nc(CN(CCc2ccccc2)C2CCN(C)CC2)no1,-9.81
9,c1ccc(CCN2CCCC(c3noc(C4CC4)n3)C2)cc1 (stereo not given),-5.63
10,CC(C)OCCCN(Cc1cnn(C)c1)Cc1ccccn1,21.5
11,O=C(COCC1CC1)Nc1cc(-c2ccc(Br)s2)n[nH]1,-5.77
12,CSc1ncccc1C(=O)N(C)CCc1scnc1C,-8.88
13,CCn1nccc1CN(C)c1[nH]cnc2nc(C)nc1-2,-5.53
14,Cc1nn(CC(=O)N2CCN(c3ccncc3)CC2)c(C)c1Cl,1.17
15,CCC(CC)n1nc(C)cc1NC(=O)C1CCOC1 (stereo not given),-6.47
16,CCOc1ccccc1OCC(=O)NCc1ncc(C)c(OC)c1C,-10.2
17,Cc1nn(C(C)C)c(C)c1NC(=O)c1cccnc1,1.88
18,Cc1ccc2nc(CN3CCCCC3C(=O)N3CCOCC3)cn2c1 (stereo not given),7.36
19,Cc1nn(C)c(N(C)C)c1CNCc1ccnn1C,-5.03
20,O=C(c1ccc[nH]1)N1CCC(c2nccn2Cc2ccncc2)CC1,-0.778
21,CC(=O)N(Cc1ncc(C)o1)C1CCN(Cc2ccccc2F)C1 (stereo not given),-2.68
22,Cc1cnn(C(C)C2CC2)c1NC(=O)c1ccncc1 (stereo not given),-8.36
23,O=C(C1CCC2(CCN(CC3CCOCC3)CC2)O1)N1CCCCO1 (stereo not given),-5.73

row,SMILES,cytotoxicity at 70.5 h [%]
1,CCCS(=O)(=O)NC(=O)c1sc(C2CCCC2)nc1C,-3.78
2,Fc1cccc(-c2nc(CN3CCCC(Cn4cncn4)C3)co2)c1 (stereo not given),16.1
3,CN1CC2(CCN(C(=O)c3cccc(-n4cccn4)c3)CC2)OC1=O,21.3
4,Cc1cc(CN(CC(N)=O)CC(C)C)no1,-4.27
5,Clc1ccc2cccnc2c1CN1CCn2c(nnc2C2CC2)C1,-13.3
6,O=C(Cc1cccc(F)c1F)NS(=O)(=O)c1ccc(Cl)cc1F,12.1
7,O=C(c1cc(=O)n(-c2ccccc2)[nH]1)N1CCOCC(O)C1 (stereo not given),22.9
8,Cc1csc2ncc(-c3ccnc(NC4CCOCC4)n3)c(=O)n12,0.723
9,O=C(Cc1cccc(F)c1)NCCNCc1cccnc1,-4.1
10,COc1ccccc1C1CC(=O)Nc2c1c(=O)[nH]n2C(C)C (stereo not given),25.6
11,Cc1cc(C)n(CC2CCCN2CCC(=O)Nc2cc(C)on2)n1 (stereo not given),-7.1
12,CC(C)COCC(NC(=O)CSc1nnc[nH]1)c1ccco1 (stereo not given),-12.5
13,COc1ccc(OC)c(C(=O)N2C[C@H]3CC[C@@H]2CN(C)C3)c1,20.2
14,Cc1ccc(-c2cc(CNC(=O)N3CCC(O)CC3)on2)cc1,0.512
15,CC(C)c1nc2oc(C(=O)N3CCOCC3)c(N)c2c2c1CCCC2,-16.6
16,COc1ccccc1-n1c(CC(C)C)nnc1SCC(=O)O,-2.95
17,CN(Cc1ccc(CCC(C)(C)O)cc1)Cc1cccc(O)c1,-8.03
18,O=C(NCC(F)(F)F)c1nnn(-c2ccccc2)c1C(F)(F)F,-4.56
19,COc1ccc(CN(C)C(=O)NCc2c(C)cc(C)nc2OC)cc1,-5.78
20,CNc1nc2ncc(Cl)cc2cc1C#N,-2.12
21,CCN(C)C[C@@H]1CN(C(=O)c2cc(C(F)(F)F)n[nH]2)C[C@@H]1CO,-10
22,FC(F)(F)COc1ccc(CSCc2ccon2)cn1,-8.78
23,O=C(NCc1ccc(F)cc1)NCC(O)(c1cccs1)C1CC1 (stereo not given),-8.72
